Results as given in patent publication US4886810A, “Quinoline derivatives, pharmaceutical composition and method of use” (Dainippon Pharmaceutical Co., Ltd., priority 1986, dated 1989).
Values after ≈ are worked out from the molar mass of the structure shown. Like-named read-outs stand apart in the source and are kept apart here.

Legend:
S. aureus 209P JC-1 = assay: microbe, parasite or virus in culture; format: cell-based; conditions: Staphylococcus aureus, 20 h, read-out: minimum inhibitory concentrations (MIC)
S. aureus No. 50774 = assay: microbe, parasite or virus in culture; format: cell-based
S. aureus No. 80 = assay: microbe, parasite or virus in culture; format: cell-based
S. pyogenes A 65 = assay: microbe, parasite or virus in culture; format: cell-based
S. pyogenes Cook = assay: microbe, parasite or virus in culture; format: cell-based
E. coli P-51213 = assay: microbe, parasite or virus in culture; format: cell-based
P. aeruginosa 12 = assay: microbe, parasite or virus in culture; format: cell-based
M. bovis P-7101 = assay: microbe, parasite or virus in culture; format: cell-based; conditions: Mycobacterium tuberculosis variant bovis, P7101, 20 h; read-out: minimum inhibitory concentrations (MIC)
M. lacunata P-7102 = assay: microbe, parasite or virus in culture; format: cell-based
Flavobacterium sp P-7201 = assay: microbe, parasite or virus in culture; format: cell-based; conditions: P7201, 20 h, read-out: minimum inhibitory concentrations (MIC)
B. abortus kusayanagi = assay: microbe, parasite or virus in culture; format: cell-based; conditions: Brucella abortus, 20 h; read-out: minimum inhibitory concentrations (MIC)
[1] = tested on: Gram-positive and Gram-negative bacteria; assay: In vitro antibacterial activity, overall; format: cell-based
Protocol: The numbers in the table show minimum inhibitory concentrations (MIC) (μg/ml), calculated for free base. The minimum inhibitory concentration was determined by the twofold agar-dilution method, which was recommended by Japan Society of Chemotherapy (Chemotherapy, 29(1), (1981)), using Muller-Hinton agar. One loopful of an overnight culture of test organisms in Mueller-Hinton broth was inoculated onto 10-ml drug-containing agar layers in petri dishes. Bacterial inocula contained approximately 10^6 colonyl-forming units. Bacterial growth was observed after 20-hour incubation at 37° C. The MIC was defined as the lowest drug concentration which prevented visible bacterial growth.

[2] = tested on: Streptococcus pyogenes A65; assay: animal or person; format: in vivo; conditions: A65, in Mus musculus, po, 168 h, 7 days, read-out: median effective dose (ED50)
[3] = tested on: Pseudomonas aeruginosa 12; assay: animal or person; format: in vivo; conditions: for ED50: Pseudomonas aeruginosa, 12, in Mus musculus, po, 168 h, 7 days, read-out: median effective dose (ED50)
[4] = tested on: Gram-positive and Gram-negative bacteria; assay: In vivo efficacy against systemic infections, overall
Protocol: Compounds were each dissolved in deionized water. Each of the solutions was orally administered to mice infected with each of the test organisms under the conditions shown hereinbelow, and the median effective dose (ED 50) was calculated by […]. The numerals in the table show ED50 (mg/kg) value, calculated for free base.
Mice: Male mice (ddY-S) weighing about 20 g Infection:
Twice, immediately and 6 hours after infection.
For 14 days in case of Staphylococcus aureus 50774.
For 7 days in case of other organisms.

in vivo = conditions: mouse, po
male mice (ddY) = assay: Acute oral toxicity in mice (Table 3); conditions: mouse, in vivo
[5] = tested on: Staphylococcus aureus 50774; assay: animal or person; format: in vivo; conditions: Staphylococcus aureus, 50774, in Mus musculus, po, 336 h, read-out: median effective dose (ED50)
[6] = Staphylococcus aureus, NO.50774, 20 h; read-out: minimum inhibitory concentrations (MIC)
[7] = Staphylococcus aureus, NO.80, 20 h; read-out: minimum inhibitory concentrations (MIC)
[8] = Streptococcus pyogenes, A65, 20 h; read-out: minimum inhibitory concentrations (MIC)
[9] = Streptococcus pyogenes, 20 h; read-out: minimum inhibitory concentrations (MIC)
[10] = Escherichia coli, P51213, 20 h; read-out: minimum inhibitory concentrations (MIC)
[11] = Pseudomonas aeruginosa, 12, 20 h; read-out: minimum inhibitory concentrations (MIC)
[12] = 20 h; read-out: minimum inhibitory concentrations (MIC)

SMILES | MIC (S. aureus 209P JC-1) | MIC (S. aureus No. 50774; [6]) | MIC (S. aureus No. 80; [7]) | MIC (S. pyogenes A 65; [8]) | MIC (S. pyogenes Cook; [9]) | MIC (E. coli P-51213; [10]) | MIC (P. aeruginosa 12; [11]) | MIC (M. bovis P-7101) | MIC (M. lacunata P-7102; [12]) | MIC (Flavobacterium sp P-7201) | MIC (B. abortus kusayanagi) | antibacterial activity against Gram-positive and Gram-negative bacteria (in words) [1] | ED50 [2] | ED50 [3] | LD50 at 168 h (in vivo) | toxicity (in words) (male mice (ddY)) | also measured
CC1(N)CCN(c2c(F)c(N)c3c(=O)c(C(=O)O)cn(C4CC4)c3c2F)C1 (centres unmarked) [Compound 3, 5-amino-7-(3-amino-3-methyl-1-pyrrolidinyl)-1-cyclopropyl-6,8-difluoro-1,4-dihydro-4-oxoquinoline-3-carboxylic acid] | 0.025 µg/mL (≈ 0.0661 µM) | 0.025 µg/mL (≈ 0.0661 µM) | 0.0063 µg/mL (≈ 0.0166 µM) | 0.1 µg/mL (≈ 0.264 µM) | 0.1 µg/mL (≈ 0.264 µM) | 0.05 µg/mL (≈ 0.132 µM) | 0.2 µg/mL (≈ 0.529 µM) | 0.2 µg/mL (≈ 0.529 µM) | 0.78 µg/mL (≈ 2.06 µM) | 0.1 µg/mL (≈ 0.264 µM) | 0.39 µg/mL (≈ 1.03 µM) | very high antibacterial activities | 9.14 mg/kg | 1.68 mg/kg | > 2000 mg/kg | low oral toxicity | efficacy against systemic infection by P. aeruginosa 12 compared with Compound A (in words) ([3]; in vivo): better efficacy; therapeutic effect on infections by Gram-positive and Gram-negative bacteria (in words) ([4]; in vivo): potent therapeutic effects; therapeutic effect compared with Compounds A and B (in words) ([4]; versus Compounds A and B, systemic infections, mice): better therapeutic effects
CCC1(N)CCN(c2c(F)c(N)c3c(=O)c(C(=O)O)cn(C4CC4)c3c2F)C1 (centres unmarked) [Compound 4, 5-amino-7-(3-amino-3-ethyl-1-pyrrolidinyl)-1-cyclopropyl-6,8-difluoro-1,4-dihydro-4-oxoquinoline-3-carboxylic acid] | 0.025 µg/mL (≈ 0.0637 µM) | 0.025 µg/mL (≈ 0.0637 µM) | 0.0063 µg/mL (≈ 0.0161 µM) | 0.2 µg/mL (≈ 0.51 µM) | 0.1 µg/mL (≈ 0.255 µM) | 0.05 µg/mL (≈ 0.127 µM) | 0.2 µg/mL (≈ 0.51 µM) | 0.2 µg/mL (≈ 0.51 µM) | 0.78 µg/mL (≈ 1.99 µM) | 0.05 µg/mL (≈ 0.127 µM) | 0.39 µg/mL (≈ 0.994 µM) | very high antibacterial activities |  |  | > 2000 mg/kg | low oral toxicity | 
CCn1cc(C(=O)O)c(=O)c2c(N)c(F)c(N3CCNCC3)c(F)c21 [Compound A, 5-amino-1-ethyl-6,8-difluoro-7-(1piperazinyl)-1,4-dihydro-4-oxoquinoline-3-carboxylic acid, reference compound] | 0.2 µg/mL (≈ 0.568 µM) | 0.2 µg/mL (≈ 0.568 µM) | 0.2 µg/mL (≈ 0.568 µM) | 12.5 µg/mL (≈ 35.5 µM) | 6.25 µg/mL (≈ 17.7 µM) | 0.39 µg/mL (≈ 1.11 µM) | 0.78 µg/mL (≈ 2.21 µM) | 3.13 µg/mL (≈ 8.88 µM) | 6.25 µg/mL (≈ 17.7 µM) | 0.78 µg/mL (≈ 2.21 µM) | 3.13 µg/mL (≈ 8.88 µM) |  | > 25 mg/kg | 15 mg/kg |  |  | 
Cl.O=C(O)c1cn(C2CC2)c2cc(N3CCNCC3)c(F)cc2c1=O [Compound B, 1-cyclopropyl-6-fluoro-7-(1-piperazinyl)-1,4-dihydro-4-oxoquinoline-3carboxylic acid hydrochloride, reference compound] | 0.1 µg/mL |  |  |  |  |  |  |  |  | 0.39 µg/mL |  |  |  |  |  |  | MIC (S. aureus No. 50774; Staphylococcus aureus, NO.50774, 20 h, read-out: minimum inhibitory concentrations (MIC)): 0.1 µg/mL; MIC (S. aureus No. 80; Staphylococcus aureus, NO.80, 20 h, read-out: minimum inhibitory concentrations (MIC)): 0.39 µg/mL; MIC (S. pyogenes A 65; Streptococcus pyogenes, A65, 20 h, read-out: minimum inhibitory concentrations (MIC)): 0.2 µg/mL; MIC (S. pyogenes Cook; Streptococcus pyogenes, 20 h, read-out: minimum inhibitory concentrations (MIC)): 0.2 µg/mL; MIC (E. coli P-51213; Escherichia coli, P51213, 20 h, read-out: minimum inhibitory concentrations (MIC)): 0.05 µg/mL; MIC (P. aeruginosa 12; Pseudomonas aeruginosa, 12, 20 h, read-out: minimum inhibitory concentrations (MIC)): 0.1 µg/mL; MIC (M. lacunata P-7102; 20 h, read-out: minimum inhibitory concentrations (MIC)): 6.25 µg/mL; ED50 [5]: 11.7 mg/kg
